# Test results published in paper PMC3795758, “Biochemical and Molecular Characterization of a Serine Keratinase from Brevibacillus brevis US575 with Promising Keratin-Biodegradation and Hide-Dehairing Activities” (PLoS ONE, 2013).
# Tested on: T1, KERUS
# T1 construct: native extracellular enzyme purified from culture supernatant; mature form 275 aa of a 383-aa pre-pro-enzyme (pre 29 aa, pro 79 aa removed)
# Assay: esterase activity, absorbance at […] nm, Lineweaver-Burk
# Type: biochemical, Brevibacillus brevis
# Conditions: pH 8, 40°C, 10% (v/v) DMSO, 1% (v/v) Triton X-100
structure (smiles),measurement,value
CCOC(=O)[C@H](CCCN=C(N)N)NC(=O)c1ccccc1 [BAEE],Km,655 ± 33 µM
